Experimental data: US20080145316A1, “Skin coating with microbial indicator” (priority 2006, published 2008)

Tests used:
E. coli = test: Colour change of cured film containing indicator dye on contact with E. coli suspension; conditions: for time to visible color change of film / visually observed color change: 100 μL E. coli 10^5 CFU/mL on cured InteguSeal film, dye 200-300 ppm
Protocol: (§1) A 2 gram solution of 300 ppm Phenol Red (from Sigma-Aldrich) in InteguSeal® skin sealant was prepared by mixing the ingredients to give a pale pink-gray liquid. 25 mg of the mixture was then placed onto a glass slide and spread out using a glass rod to give a thin coating smear on the glass. After the mixture fully cured (5 minutes) 100 μL of suspension of E. coli bacteria at 10^5 CFU/mL was placed onto the cured sealant and visually observed for any color change. […] No color change or development was observed when the color media or water was placed on the sealant film.
(§2) Reichardt's dye (from Sigma-Aldrich) was mixed into 2 grams of InteguSeal® skin sealant containing an extra 0.2 gram of tributyl o-acetylcitrate placticizer (from Sigma-Aldrich) to give a deep blue solution with 200 ppm concentration of the dye. A drop (25 mg) of the mixture was then placed onto a microscope glass slide (5 cm×7.5 cm) and spread out using a glass rod to give thin coating smear (3 cm×2 cm). After complete cure had occurred (5 minutes) the cured film was exposed to a suspension of E. coli (gram negative bacteria) at 10^5 CFU/mL (colony forming units). 100 μL of this suspension was placed onto a spot on the cured film and the area observed. In less than 10 seconds the area in contact with the bacteria suspension decolorized, visually indicating the contamination. When a 100 μL sample of the control media broth or water alone was placed on the sealant no color discharge was observed. On a separate untouched part of the cured film was placed 100 μL suspension of A. niger (mold) at 10^5 CFU/mL and the area again observed. In less than 10 seconds the Reichardt's dye had decolorized where the mold suspension was in contact with the film.
Phenol red was dissolved in 3 other curable resins at a concentration of 300 ppm and tested with E. coli as described in example 5 above. The resins tried were: • Elmer's glue-all (Elmer's Products Inc., Columbus Ohio) • Contact cement (DAP Weldwood Inc., Dayton, Ohio) • Gelatin USP (unflavored. The Kroger Co., Cincinnati, Ohio) 100 μL suspension of E. coli was then placed on the cured film and visually observed. In all three resins the area in direct contact with the bacteria suspension turned red.

S. aureus [1] = test: Colour change of cured skin sealant film containing indicator dye on contact with S. aureus suspension; conditions: 100 μL S. aureus 10^6 CFU/mL on cured InteguSeal film, dye 200-300 ppm
Protocol: Reichardt's dye (from Sigma-Aldrich Chemical Co. Inc., Milwaukee Wis.) was mixed into 2 grams of InteguSeal® skin sealant (Medlogic Global Ltd., Cornwall, UK) containing an extra 0.2 gram of tributyl o-acetylcitrate placticizer (from Sigma-Aldrich) to give a deep blue solution with 200 ppm concentration of the dye. A drop (25 mg) of the mixture was then placed onto a microscope glass slide (5 cm×7.5 cm) and spread out using a glass rod to give thin coating smear (3 cm×2 cm). After complete cure had occurred (5 minutes) the cured film was exposed to a suspension of S. aureus (gram positive bacteria) at 10^6 CFU/mL (colony forming units). 100 μL of this suspension was placed onto a spot on the cured film and the area observed. In less than 10 seconds the area in contact with the bacteria suspension decolorized, visually indicating the contamination. When a 100 μL sample of the control media broth or water alone was placed on the sealant no color discharge was observed.
A 2 gram blue-purple solution of 300 ppm Chrome Azurol S (from Sigma-Aldrich) in InteguSeal® skin sealant was prepared to give a 300 ppm concentration of the dye. A drop 25 mg of the mixture was placed onto a glass slide and spread using a glass rod to give a thin smear. The sealant was allowed to fully cure (5 minutes). After this time 100 μL suspension of S. aureus at 10^6 CFU/mL was placed on the cure sealant and then visually observed for a color change.
as §1, with “S. aureus” for “E. coli”, “10^6” for “10^5”
A 2 gram sample of 300 ppm Eriochrome Blue Black B (from Sigma-Aldrich) in InteguSeal® skin sealant was prepared by mixing the ingredients to give a gray-blue mixture. 25 mg of the mixture was placed on a glass slide and spread with a glass rod to give a thin smear. The film was allowed to fully cure (5 minutes) and then 100 μL of S. aureus suspension at 10^6 CFU/mL was applied to the cured film and observed for a color change. […] No color change was observed when control media or water was applied to the film.

A. niger = test: Colour change of cured skin sealant film containing indicator dye on contact with A. niger suspension; conditions: 100 μL A. niger (mold) 10^5 CFU/mL on cured InteguSeal film, dye 200 ppm
Protocol: as §2

S. aureus [2] = test: Color change measurement with spectrometer (Minolta cm-2600d), film area before and after exposure to microbes; conditions: CIELAB, cured InteguSeal film before vs after exposure to microbes
Source text: The color change inherent in the skin coating with indicator may be considered as a visual indicator with the user visually observing a color change as a signal that infection or microbial contamination is present, or the color change could also be measured electronically. Such measurements could be conducted using an optical device or other spectroscopic methods known to those skilled in the art to measure changes in color such as spectrophotometers and spectrodenitometers. The instruments measure color space (as described in “Pocket guide to digital printing” (1997) by Frank Cost, Delmar Publishers Inc., at page 144), the most widely used color space is CIELAB. This defines three variables, L*, a*, and b*, that have the following meaning:
Because CIELAB color space is somewhat uniform, a single number can be calculated that represents the difference between two colors as perceived by the human being. This difference is termed ΔE and is calculated by taking the square root of the sum of the squares of the three differences (ΔL*, Δa*, and Δb*) between the two colors (i.e. starting color and after color change).
Although in each of the examples described above the color change when in contact with microbes was clearly visible it would also be possible to measure this color change with an optical color change meter or sensor. This was conduced on Examples 1, 2, and 3 by illustration. The color change was measured using a spectrometer (Minolta cm-2600d. Minolta Co., Japan) and the reading obtained by measuring the film area before and after exposure to microbes. The reading was recorded in units of ΔE.

SMILES	time to visible color change of film (E. coli)	visually observed color change (E. coli)	time to visible color change of film (S. aureus [1])	visually observed color change (S. aureus [1])	time to visible color change of film (A. niger)	visually observed color change (A. niger)	color change ΔE (S. aureus [2])	visually observed color change in other curable resins (E. coli; 300 ppm dye in Elmer's glue-all, Contact cement, Gelatin USP, 100 μL E. coli suspension on cured film, all three resins)
[O-]c1c(-c2ccccc2)cc(-[n+]2c(-c3ccccc3)cc(-c3ccccc3)cc2-c2ccccc2)cc1-c1ccccc1 [Reichardt's dye, 4-(2,4,6-triphenylpyridinium-1-yl)-2,6-diphenylphenolate]	less than 10 seconds	decolorized	less than 10 seconds	decolorized	less than 10 seconds	decolorized	32 ΔE	
O=S1(=O)OC(c2ccc(O)cc2)(c2ccc(O)cc2)c2ccccc21 [Phenol Red, phenolsulfonephthalein]	less than 5 seconds	bright red color developed	less than 5 seconds	bright red color developed			35 ΔE	turned red
CC1=C/C(=C(\c2cc(C)c(O)c(C(=O)[O-])c2)c2c(Cl)ccc(S(=O)(=O)[O-])c2Cl)C=C(C(=O)[O-])C1=O.[Na+].[Na+].[Na+] [Chrome Azurol S]			≤ 5 s	red color developed			27 ΔE	
O=S(=O)([O-])c1cc(O)c(/N=N/c2ccc3ccccc3c2O)c2ccccc12.[Na+] [Eriochrome Blue Black B]			less than 5 seconds	film color was discharged to leave a colorless spot				
